The results in this text go back to publication PMC7251871, “Construction of reporter gene assays using CWP and PDR mutant yeasts for enhanced detection of various sex steroids” (Genes and Environment, 2020).

Several values for one entry are separate records, joined by “and”; a condition that tells them apart may be missing. Equal entries are not always repeated. Where two headings read alike, the source gives them in different places.

Data set [1] concerns the target T1, human PR (Homo sapiens, UniProt P06401).
T1 sequence (P06401 1-933): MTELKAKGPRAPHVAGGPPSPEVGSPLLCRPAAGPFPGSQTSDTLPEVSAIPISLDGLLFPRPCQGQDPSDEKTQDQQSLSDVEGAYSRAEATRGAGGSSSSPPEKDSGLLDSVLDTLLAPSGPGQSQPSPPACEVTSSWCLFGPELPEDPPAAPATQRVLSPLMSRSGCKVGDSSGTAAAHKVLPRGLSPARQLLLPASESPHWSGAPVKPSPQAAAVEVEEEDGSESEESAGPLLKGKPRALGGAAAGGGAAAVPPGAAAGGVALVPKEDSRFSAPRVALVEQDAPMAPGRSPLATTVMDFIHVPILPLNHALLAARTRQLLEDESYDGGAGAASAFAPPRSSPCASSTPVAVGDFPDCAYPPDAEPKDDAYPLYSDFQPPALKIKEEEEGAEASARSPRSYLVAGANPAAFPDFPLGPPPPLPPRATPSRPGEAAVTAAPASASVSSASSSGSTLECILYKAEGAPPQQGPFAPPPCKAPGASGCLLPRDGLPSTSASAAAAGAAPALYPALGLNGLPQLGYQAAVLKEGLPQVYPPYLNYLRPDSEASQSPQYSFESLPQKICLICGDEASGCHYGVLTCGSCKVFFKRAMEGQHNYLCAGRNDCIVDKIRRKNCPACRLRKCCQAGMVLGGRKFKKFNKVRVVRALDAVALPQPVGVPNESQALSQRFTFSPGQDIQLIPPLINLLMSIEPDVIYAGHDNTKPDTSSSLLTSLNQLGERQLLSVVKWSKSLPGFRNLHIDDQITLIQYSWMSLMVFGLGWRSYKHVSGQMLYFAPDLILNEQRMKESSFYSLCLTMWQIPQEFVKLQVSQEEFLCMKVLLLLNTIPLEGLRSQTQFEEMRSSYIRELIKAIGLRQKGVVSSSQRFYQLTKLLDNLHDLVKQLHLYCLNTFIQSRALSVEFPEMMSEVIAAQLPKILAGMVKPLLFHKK
Description: PR agonist yeast lacZ reporter gene assay. The following applies: for EC50: EC50, agonist assay. (In general: Reporter assays use an easily measured gene product as a stand-in for the process of interest.)

Data set [2] addresses T2, human AR (Homo sapiens, UniProt P10275).
T2 sequence (P10275 1-920): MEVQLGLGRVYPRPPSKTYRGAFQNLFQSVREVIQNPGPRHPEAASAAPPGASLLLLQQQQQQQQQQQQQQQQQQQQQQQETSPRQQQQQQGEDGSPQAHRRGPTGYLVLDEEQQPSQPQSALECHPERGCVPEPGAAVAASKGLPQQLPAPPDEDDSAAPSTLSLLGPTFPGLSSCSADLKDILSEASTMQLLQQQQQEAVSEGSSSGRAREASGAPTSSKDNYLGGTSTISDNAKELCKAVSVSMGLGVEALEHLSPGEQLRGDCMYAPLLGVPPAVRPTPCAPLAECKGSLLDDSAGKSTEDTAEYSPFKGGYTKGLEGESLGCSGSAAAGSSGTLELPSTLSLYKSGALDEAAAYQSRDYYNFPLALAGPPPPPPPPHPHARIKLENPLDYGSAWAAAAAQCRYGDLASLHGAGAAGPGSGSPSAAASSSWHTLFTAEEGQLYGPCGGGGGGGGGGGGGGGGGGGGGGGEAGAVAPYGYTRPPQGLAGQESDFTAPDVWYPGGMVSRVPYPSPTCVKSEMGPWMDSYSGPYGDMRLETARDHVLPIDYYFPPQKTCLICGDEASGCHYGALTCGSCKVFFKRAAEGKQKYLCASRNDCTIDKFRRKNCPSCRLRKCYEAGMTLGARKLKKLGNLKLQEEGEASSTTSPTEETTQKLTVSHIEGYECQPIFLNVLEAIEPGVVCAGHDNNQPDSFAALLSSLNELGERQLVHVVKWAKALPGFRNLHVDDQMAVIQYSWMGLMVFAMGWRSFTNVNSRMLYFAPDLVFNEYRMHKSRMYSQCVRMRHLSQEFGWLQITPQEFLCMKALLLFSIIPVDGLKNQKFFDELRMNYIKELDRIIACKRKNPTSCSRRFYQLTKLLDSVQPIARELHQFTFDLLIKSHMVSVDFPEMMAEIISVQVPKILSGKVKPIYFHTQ
Description: AR agonist yeast lacZ reporter gene assay. The format is cell-based.

For data set [3], the target named is T2, human AR. Nature of the data set: AR antagonist yeast reporter gene assay (competition with testosterone at EC50). In kind it is cell-based. The following applies: with testosterone […] nM.
Data set [4] has as its target T3, human ERβ (Homo sapiens, UniProt Q92731). Nature of the data set: ERβ agonist yeast lacZ reporter gene assay. The format is cell-based.
Data set [5] deals with T3, human ERβ. Description: ERβ antagonist yeast reporter gene assay (competition with E2 at EC50). The following applies: co-exposure with E2; data not shown.
In a further data set the target is T4, human ERα (Homo sapiens, UniProt P03372).
T4 sequence (P03372 1-595): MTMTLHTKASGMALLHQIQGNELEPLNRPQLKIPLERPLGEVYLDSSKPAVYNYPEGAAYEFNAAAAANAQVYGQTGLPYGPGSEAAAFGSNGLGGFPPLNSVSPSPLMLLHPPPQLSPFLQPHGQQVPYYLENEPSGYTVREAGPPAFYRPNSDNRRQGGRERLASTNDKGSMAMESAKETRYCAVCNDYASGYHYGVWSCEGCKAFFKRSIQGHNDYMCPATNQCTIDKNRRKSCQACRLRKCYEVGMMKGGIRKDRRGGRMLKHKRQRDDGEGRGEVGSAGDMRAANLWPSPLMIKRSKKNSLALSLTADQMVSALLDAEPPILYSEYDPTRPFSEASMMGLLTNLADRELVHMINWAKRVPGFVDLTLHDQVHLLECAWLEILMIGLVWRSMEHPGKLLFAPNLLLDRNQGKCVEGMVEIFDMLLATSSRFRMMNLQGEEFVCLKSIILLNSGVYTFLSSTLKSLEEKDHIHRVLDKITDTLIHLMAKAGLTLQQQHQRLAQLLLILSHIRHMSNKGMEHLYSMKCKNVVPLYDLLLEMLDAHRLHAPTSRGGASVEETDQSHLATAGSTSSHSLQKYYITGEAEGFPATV
Description: ERα agonist yeast lacZ reporter gene assay. The format is cell-based. The following applies: strain cwp1Δcwp2Δ.

The target in data set [6] is T1, human PR. Description: PR antagonist yeast reporter gene assay (competition with PS at EC50). The format is cell-based. The following applies: strain cwp1Δpdr5Δ.
The mark [7] stands for this setting: agonist assay, strain W303a, read-out: EC50.
The mark [8] stands for this setting: agonist assay, strain cwp1Δcwp2Δ, read-out: EC50.

T3 sequence (Q92731 whole entry): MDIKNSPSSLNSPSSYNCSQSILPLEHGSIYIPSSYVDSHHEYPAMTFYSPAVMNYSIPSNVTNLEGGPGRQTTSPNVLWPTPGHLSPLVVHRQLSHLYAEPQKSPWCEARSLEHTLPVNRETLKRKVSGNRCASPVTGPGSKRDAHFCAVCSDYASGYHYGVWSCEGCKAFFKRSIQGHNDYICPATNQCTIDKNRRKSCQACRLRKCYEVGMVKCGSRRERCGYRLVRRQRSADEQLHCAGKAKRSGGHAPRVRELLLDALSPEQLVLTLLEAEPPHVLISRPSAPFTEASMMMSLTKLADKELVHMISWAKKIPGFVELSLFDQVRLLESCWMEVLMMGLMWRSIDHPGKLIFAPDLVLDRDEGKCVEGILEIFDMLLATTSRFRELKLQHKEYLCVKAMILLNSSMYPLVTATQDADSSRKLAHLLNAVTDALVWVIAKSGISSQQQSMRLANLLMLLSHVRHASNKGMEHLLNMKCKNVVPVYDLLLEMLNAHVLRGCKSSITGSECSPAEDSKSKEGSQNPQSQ

As to `C[C@]12CCC(=O)C=C1CC[C@@H]1[C@@H]2[C@@H](O)C[C@]2(C=O)[C@@H](C(=O)CO)CC[C@@H]12` [AS, aldosterone], a half-maximal response at human PR [1] (strain cwp1Δpdr5Δ) (EC50) required 9.7 µM.

Take `C[C@]12C[C@H](O)[C@H]3[C@@H](CCC4=CC(=O)CC[C@@]43C)[C@@H]1CC[C@@H]2C(=O)CO` [CS, corticosterone]: the EC50 at human PR [1] (strain cwp1Δcwp2Δ) was determined as 20.1 µM; on human PR [1] (strain cwp1Δpdr5Δ), 18.3 µM.

As for `C[C@]12CCC3=C4CCC(=O)C=C4CC[C@H]3[C@@H]1CC[C@@]2(O)CC#N` [DNG, Dienogest], the “androgenic activity, fold weaker than earlier generation progestins with respect to minimal detection limit concentration” value at human AR [2] (AR-expressing mutant yeast strains) stood at 100 fold. For the same compound, the EC50 was 9.78 µM on human AR [2] (setting [7]); 8.1 µM on human AR [2] (agonist assay, strain cwp1Δpdr5Δ, read-out: EC50); 2.43 µM at human AR [2] (agonist assay, strain pdr5Δpdr10Δ, read-out: EC50); 6.1 µM on human PR [1] (strain cwp1Δcwp2Δ); 0.86 µM at human PR [1] (strain cwp1Δpdr5Δ). For the same compound, the IC50 came out at 38100 nM on human AR [3] (strain cwp1Δpdr5Δ) and 30200 nM at human AR [3] (strain pdr5Δpdr10Δ). For the same compound, the “constitutive expression of β-gal in reference CYC strains” value (“constitutive expression of β-gal” for short) in the data set on CYC yeast strains was “Neither DNG nor DRSP inhibited”.

As for `C[C@]12CCC(=O)C=C1[C@@H]1C[C@@H]1[C@H]1[C@@H]3[C@@H]4C[C@@H]4[C@@]4(CCC(=O)O4)[C@@]3(C)CC[C@@H]12` [DRSP, drospirenone], the “constitutive expression of β-gal” value with CYC yeast strains is given as “Neither DNG nor DRSP inhibited”.

Regarding `C[C@]12CC[C@@H]3c4ccc(O)cc4CC[C@H]3[C@@H]1CCC2=O` [E1, estrone], the half-maximal effective concentration (EC50) at human AR [2] (EC50) was 0.9 µM and 0.86 µM and 0.096 µM.

In the case of `C[C@]12CC[C@@H]3c4ccc(O)cc4CC[C@H]3[C@@H]1C[C@@H](O)[C@@H]2O` [E3, estriol], the EC50 at human ERβ [4] (setting [7]) worked out at 0.034 µM; at human ERβ [4] (setting [8]), 0.00122 µM. The values for the Detection limit on human ERβ [4] (strain W303a) and on human ERβ [4] (strain cwp1Δcwp2Δ) were 0.1 µM and 10^−4 μM, respectively.

For the compound `CC(C)C(=O)Nc1ccc([N+](=O)[O-])c(C(F)(F)F)c1` [Flu, flutamide], in the data set on CYC yeast strains, the “constitutive expression of β-gal” value is “not affected”.

Consider `C#C[C@]1(O)C=C[C@H]2[C@@H]3CCC4=CC(=O)CC[C@@H]4[C@H]3CC[C@@]21CC` [GTD, gestodene], for which, on human AR [2], the “androgenic activity, fold weaker than earlier generation progestins with respect to minimal detection limit concentration” value was determined as 10 fold. In addition, the EC50 on human AR [2] (EC50) was 1.06 µM and 0.4 µM; at human PR [1] (strain W303a), 0.22 µM; on human PR [1] (strain cwp1Δpdr5Δ), 0.000996 µM.

For the compound `C[C@]12CC[C@@H]3c4ccc(O)cc4C[C@@H](CCCCCCCCC[S+]([O-])CCCC(F)(F)C(F)(F)F)[C@H]3[C@@H]1CC[C@@H]2O` (some centres unmarked) [ICI, ICI 182, 780], the “constitutive β-gal expression in control CYC strains” value in the data set on CYC yeast strains is on record as “not repressed”.

As to `Cc1c(-c2ccc(O)cc2)nn(-c2ccc(O)cc2)c1-c1ccc(OCCN2CCCCC2)cc1.Cl.Cl` [MPP, methyl-piperidino-pyrazoledihydrochloride hydrate], the EC50 at human ERβ [4] (setting [7]) was 19.2 µM; at human ERβ [4] (setting [8]), 2.73 µM. In addition, on human ERβ [5], the antagonistic activity result was “undetectable”.

For `CC#C[C@]1(O)CC[C@H]2[C@@H]3CCC4=CC(=O)CCC4=C3[C@@H](c3ccc(N(C)C)cc3)C[C@@]21C` [Mif, mifepristone], the “constitutive expression of β-gal” value with CYC yeast strains was “not affected”.

In the case of `CCCc1c(-c2ccc(O)cc2)nn(-c2ccc(O)cc2)c1-c1ccc(O)cc1` [PPT, propyl pyrazole triol], on human ERα, the “fold lower EC50 value for ERα than ERβ” value was determined as 2.5 fold and the “fold lower minimum detection limit for ERα than ERβ” value was 10 fold. In addition, the EC50 at human ERβ [4] (read-out: EC50) was 13.7 µM and 2.34 µM.

`CC(=O)[C@H]1CC[C@H]2[C@@H]3CCC4=CC(=O)CC[C@]4(C)[C@H]3CC[C@]12C` [PS, progesterone]: the Detection limit was 10 µM on human PR [1] (strain W303a), 0.01 µM at human PR [1] (strain cwp1Δcwp2Δ) and 0.01 µM on human PR [1] (strain cwp1Δpdr5Δ).

`CC(=O)S[C@@H]1CC2=CC(=O)CC[C@]2(C)[C@H]2CC[C@@]3(C)[C@@H](CC[C@@]34CCC(=O)O4)[C@H]12` [Spi, spironolactone] had a Maximum inhibition at human PR [6] of 34.0%. For the same compound, the “constitutive expression of β-gal” value in the data set with CYC yeast strains was “not affected”.

On to `C[C@]12CC[C@H]3[C@@H](CCC4=CC(=O)CC[C@@]43C)[C@@H]1CC[C@@H]2O` [TS, Testosterone], for which the EC50 on human ERβ [4] (EC50, agonist assay, strain cwp1Δcwp2Δ) is 0.87 µM; on human PR [1] (strain cwp1Δcwp2Δ) it was 29 µM; on human PR [1] (strain cwp1Δpdr5Δ), 31 µM.

Turning to `CC/C(=C(\c1ccccc1)c1ccc(OCCN(C)C)cc1)c1ccccc1` [Tam, tamoxifen], the “constitutive β-gal expression in control CYC yeasts” value in the data set on CYC yeast strains (100 μM) is “less than 60%”.

Turning to `C[C@H]1CCC[C@H](O)CCCCCc2cc(O)cc(O)c2C(=O)O1` [Zer, zeranol], in the data set with CYC yeast strains (CYC W303a and corresponding CYC mutant strains), the “constitutive expression of β-gal” value was “not affected”.

One may read the EC50 as the concentration that produces a half-maximal response. By IC50 is commonly meant the point on the concentration scale where inhibition reaches its midpoint. Higher therefore signals weaker potency.
